Assay results as given in patent US20240270821A1, “GIP/GLP1/GCG TRI-RECEPTOR AGONISTS AND USES THEREOF” (priority 2023, published 2024).
Read-outs that look alike come from different tables or passages of the source. Marks after values point to notes of the source that are not given here. Starred links: 1 amine or outer side, 2 acyl side, 3 side chain; linkers in the order of their positions; H or OH if unused. Non-standard residues stand in square brackets, D forms with d. Residues, ends and D or L forms follow the SMILES beside them. Groups on a side chain read outwards from the residue. *: point of attachment. C20 diacid = O=C(O)CCCCCCCCCCCCCCCCCCC(=O)*; C18 diacid = O=C(O)CCCCCCCCCCCCCCCCC(=O)*; αMePhe(2-F) = C[C@](N)(Cc1ccccc1F)C(=O)O; γGlu = O=C(O)[C@H](CCC(=O)[*:2])N[*:1]; αMe4Pal = C[C@](N)(Cc1ccncc1)C(=O)O; αMeY = C[C@](N)(Cc1ccc(O)cc1)C(=O)O; 4Pal = N[C@@H](Cc1ccncc1)C(=O)O; αMeL = CC(C)C[C@](C)(N)C(=O)O; αMeS = C[C@](N)(CO)C(=O)O; Orn = NCCC[C@H](N)C(=O)O; AEEA = NCCOCCOCC(=O)O; Aib = CC(C)(N)C(=O)O

What was measured:
hGLP-1R [1] = molecular target: T1, hGLP-1R (Homo sapiens, UniProt P43220); test: Functional cAMP activity in the presence of 1% HSA; format: cell-based; details: read-out: cAMP Rel EC50, hGLP-1R
Target sequence in this assay (P43220 24-463): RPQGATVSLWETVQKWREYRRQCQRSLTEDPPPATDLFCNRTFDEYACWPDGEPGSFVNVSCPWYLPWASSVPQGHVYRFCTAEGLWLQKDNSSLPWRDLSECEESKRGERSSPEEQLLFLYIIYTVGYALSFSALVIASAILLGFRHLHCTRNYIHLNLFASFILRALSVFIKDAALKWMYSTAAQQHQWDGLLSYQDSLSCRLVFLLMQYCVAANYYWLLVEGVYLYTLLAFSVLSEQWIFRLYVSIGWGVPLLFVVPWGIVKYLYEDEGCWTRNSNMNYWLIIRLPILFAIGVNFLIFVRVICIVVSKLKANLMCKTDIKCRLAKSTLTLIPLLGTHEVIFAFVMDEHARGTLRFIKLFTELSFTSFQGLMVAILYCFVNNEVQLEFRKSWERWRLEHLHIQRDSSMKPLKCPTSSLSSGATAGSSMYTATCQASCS

[2] = Pepsin stability assay in simulated gastric fluid; format: in vitro ADME; details: pH 1.2, % Intact (SD)
Protocol: A pepsin stability assay is utilized to determine the relative stability of Example polypeptides in a simulated gastric proteolytic environment. […] The relative amount of intact peptide is quantified by mass spectrometry (MS). […] The examples were dissolved in 50 mM Tris buffer pH 8.0 at a concentration of 10 mg/mL as a stock solution. Pepsin A was reconstituted in SGF at 10 mg/mL. […] The example peptide and pepsin solutions were then incubated at 37° C. in a shaking incubator set at 100 rpm. Samples (25 μL) were withdrawn at different time intervals and quenched with 100 mM ammonium bicarbonate pH 9 (50 μL) to stop proteolytic activity. All samples were centrifuged, and the supernatants were analyzed by LC/MS to determine the remaining intact peptide.

hGIPR [3] = molecular target: T2, hGIPR (Homo sapiens, UniProt P48546); test: Functional cAMP activity in the presence of 1% HSA; format: cell-based; details: read-out: cAMP Rel EC50, hGIPR
T2 sequence (P48546 22-466): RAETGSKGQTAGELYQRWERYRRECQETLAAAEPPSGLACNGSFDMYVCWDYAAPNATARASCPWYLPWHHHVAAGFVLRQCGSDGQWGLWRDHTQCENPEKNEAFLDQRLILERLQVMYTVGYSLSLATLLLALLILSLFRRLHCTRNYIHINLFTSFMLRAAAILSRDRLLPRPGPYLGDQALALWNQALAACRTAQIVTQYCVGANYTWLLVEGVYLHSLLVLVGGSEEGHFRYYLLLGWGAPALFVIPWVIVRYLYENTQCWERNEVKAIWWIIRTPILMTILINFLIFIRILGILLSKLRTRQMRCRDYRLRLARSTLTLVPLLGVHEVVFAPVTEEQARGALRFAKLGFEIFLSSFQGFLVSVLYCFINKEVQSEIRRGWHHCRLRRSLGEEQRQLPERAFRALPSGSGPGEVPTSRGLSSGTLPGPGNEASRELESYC

human GcgR = human GcgR (Homo sapiens, UniProt P47871); test: Functional cAMP activity in the presence of 1% HSA; format: cell-based; details: read-out: cAMP Rel EC50, hGcgR
Chain of human GcgR (P47871 26-477): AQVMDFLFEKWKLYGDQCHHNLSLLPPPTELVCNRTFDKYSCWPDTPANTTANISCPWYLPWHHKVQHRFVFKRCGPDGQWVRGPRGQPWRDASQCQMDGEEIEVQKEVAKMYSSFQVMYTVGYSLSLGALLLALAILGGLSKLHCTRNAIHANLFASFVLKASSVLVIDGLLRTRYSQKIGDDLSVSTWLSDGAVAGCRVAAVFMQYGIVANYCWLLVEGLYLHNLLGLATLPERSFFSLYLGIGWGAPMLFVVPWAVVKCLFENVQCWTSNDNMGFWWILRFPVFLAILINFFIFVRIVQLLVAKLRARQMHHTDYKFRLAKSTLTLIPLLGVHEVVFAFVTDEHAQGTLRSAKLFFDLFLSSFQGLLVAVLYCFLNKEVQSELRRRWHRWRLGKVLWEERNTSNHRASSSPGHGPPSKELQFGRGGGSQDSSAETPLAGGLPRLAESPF

hGcgR = hGcgR (Homo sapiens, UniProt P47871); test: Functional cAMP activation in the presence of 0.1% casein (no HSA); format: cell-based; details: read-out: Relative cAMP EC50, hGcgR;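 note: intracellular cAMP rise after 30 min at 37 °C, read by HTRF against a cAMP standard curve, scaled from buffer only (0%) to maximal control ligand response (100%)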
Chain of hGcgR (P47871 26-477): as above

hGLP-1R [4] = molecular target: T1, hGLP-1R; test: as above; format: cell-based; details: read-out: Relative cAMP EC50, hGLP-1R
Target sequence in this assay (P43220 24-463): as the sequence (P43220 24-463) above

hGIPR [5] = molecular target: T2, hGIPR; test: as above; format: cell-based; details: read-out: Relative cAMP EC50, hGIPR
hGLP-1R [6] = molecular target: T1, hGLP-1R; test: GLP-1R CHO cell β-arrestin recruitment assay; format: cell-based; design: host or cells: CHO-K1 (PathHunter, assay-ready frozen cells); details: for EC50: CHO-K1 PathHunter, β-arrestin-2, 0.1% casein, read-out: hGLP1R β-arrestin Rel EC50; for % Stimulation Max: normalized to GLP-1(7-36) as maximum control;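 for all read-outs here: luminescence read after 90 min peptide exposure at 37 °C and a further 60 min with detection reagent at room temperature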
Target sequence in this assay (P43220 24-463): as above
Target sequence in this assay (P32121 whole entry partner): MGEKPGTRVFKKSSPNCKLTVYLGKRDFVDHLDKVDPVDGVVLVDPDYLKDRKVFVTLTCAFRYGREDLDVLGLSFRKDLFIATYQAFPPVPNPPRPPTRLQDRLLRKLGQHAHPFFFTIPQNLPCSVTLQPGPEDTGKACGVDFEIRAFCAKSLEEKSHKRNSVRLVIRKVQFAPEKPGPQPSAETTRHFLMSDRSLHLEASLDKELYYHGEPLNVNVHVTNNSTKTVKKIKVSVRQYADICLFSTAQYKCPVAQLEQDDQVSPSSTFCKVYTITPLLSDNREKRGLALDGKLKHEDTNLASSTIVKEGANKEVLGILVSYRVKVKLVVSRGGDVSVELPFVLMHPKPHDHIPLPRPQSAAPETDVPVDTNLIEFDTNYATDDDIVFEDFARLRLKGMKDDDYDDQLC

human GLP1-R = human GLP1-R (Homo sapiens, UniProt P43220); test: GLP1-R internalization assay in HEK293 cells; format: cell-based; details: for EC50: HEK293 cells expressing SNAP-GLP-1R, read-out: GLP1R Internalization EC50; for Internalization % TOP: normalized to maximum concentration of GLP-1 (100%)
Chain of human GLP1-R (P43220 24-463): as the sequence (P43220 24-463) above

[7] = Body weight in diet-induced obese C57BL/6 mice; format: in vivo; details: percent of starting weight, DIO mice, mean ± SEM n=5
Protocol: To investigate the effect of the polypeptides as described herein on weight loss, exemplary polypeptides are dosed to C57BL/6 diet-induced obese (DIO) mice. Specifically, DIO male C57BL/6 mice (Taconic, Germantown, NY) maintained on a calorie-rich diet are used in the following studies. Mice are individually housed in a temperature-controlled (24° C.) facility with 12-hour light/dark cycle (lights on 22:00) and free access to food (TD95217) and water. After a minimum of 2 weeks acclimation to the facility, the mice are randomized according to their body weight, so each experimental group of animals would have similar starting body weight. The body weights range from 41 to 50 g. All groups contain 5 mice. […] Treatments are administered by subcutaneous (SC) injection (10 mL/kg) to ad libitum fed DIO mice 30 to 90 minutes prior to the onset of the dark cycle either once daily (QD) or once every 3 days (Q3D) for 9-16 days. Body weight and food intake are measured daily throughout the study. Body weight is presented as percent of the starting weight. […] Data are presented as mean±SEM of 5 animals per group in Table 7 below. Statistical analysis is performed using repeated measures ANOVA, followed by Dunnett's method comparison test.

[8] = in the presence of 0.1% casein (no HSA), geometric mean
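Throughout, for Relative cAMP EC50, hGIPR: intracellular cAMP rise after 30 min at 37 °C read by HTRF against a standard curve, scaled between buffer alone (0%) and top control ligand concentration (100%), four-parameter fit.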
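Throughout, for Relative cAMP EC50, hGLP-1R: intracellular cAMP rise after 30 min at 37 °C read by HTRF, normalized between buffer only (0%) and maximal control ligand (100%), four-parameter variable-slope fit.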

Compound	EC50 (hGLP-1R [1]) [nM]	remaining at 0.25 h, 0.4 mg/mL [2] [%]	remaining at 0.5 h, 0.4 mg/mL [2] [%]	remaining at 1 h, 0.4 mg/mL [2] [%]	EC50 (hGIPR [3]) [nM]	EC50 (human GcgR) [nM]	EC50 (hGcgR) [nM]	EC50 (hGLP-1R [4]) [nM]	EC50 (hGIPR [5]) [nM]	EC50 (hGLP-1R [6]) [nM]	% Stimulation Max (hGLP-1R [6]) [%]	EC50 (human GLP1-R) [nM]	Internalization % TOP (human GLP1-R) [%]	EC50 (hGcgR; [8]) [nM]	EC50 (hGLP-1R [4]; [8]) [nM]	EC50 (hGIPR [5]; [8]) [nM]	Body weight (%) ([7]; 10 nmol/kg SC Q3D, 14 days)	Body weight (%) ([7]; 10 nmol/kg SC QD, 16 days)
CC[C@H](C)[C@H](NC(=O)[C@H](CC(C)C)NC(=O)[C@](C)(Cc1ccc(O)cc1)NC(=O)[C@@H](CCC(=O)O)NC(=O)[C@@H](NC(=O)[C@H](Cc1ccccc1)NC(=O)[C@@H](NC(=O)C(C)(C)NC(=O)[C@H](CCC(N)=O)NC(=O)[C@H](C)NC(=O)[C@H](CCCCNC(=O)COCCOCCNC(=O)CC[C@H](NC(=O)CCCCCCCCCCCCCCCCC(=O)O)C(=O)O)NC(=O)[C@H](CCCN)NC(=O)[C@H](CC(=O)O)NC(=O)[C@H](CC(C)C)NC(=O)[C@](C)(CC(C)C)NC(=O)[C@@H](NC(=O)[C@](C)(CO)NC(=O)[C@H](Cc1ccncc1)NC(=O)[C@H](CC(=O)O)NC(=O)[C@H](CO)NC(=O)[C@@H](NC(=O)[C@](C)(Cc1ccccc1F)NC(=O)[C@@H](NC(=O)CNC(=O)[C@H](CCC(N)=O)NC(=O)C(C)(C)NC(=O)[C@@H](N)Cc1ccc(O)cc1)[C@@H](C)O)[C@@H](C)O)[C@@H](C)CC)[C@@H](C)O)[C@@H](C)CC)C(=O)N[C@@H](CCC(=O)O)C(=O)NCC(=O)NCC(=O)N1CCC[C@H]1C(=O)N[C@@H](CO)C(=O)N[C@@H](CO)C(=O)NCC(=O)N[C@@H](CCC(=O)O)C(=O)N1CCC[C@H]1C(=O)N1CCC[C@H]1C(=O)N1CCC[C@H]1C(=O)N[C@@H](CCC(=O)O)C(N)=O [Example 457] (H-Y[Aib]QGT[αMePhe(2-F)]TSD[4Pal][αMeS]I[αMeL]LD[Orn]K([AEEA-γGlu-C18 diacid])AQ[Aib]TFI[dE][αMeY]LIEGGPSSGEPPPE-NH2)	11.7	78.8	68.9	60.1	0.881	333	2.86	0.226	0.00918									
H-Y[Aib]QGTFTSDFSI[αMeL]LDKK([AEEA-γGlu-C20 diacid])AQ[Aib]AFIEYLLEGGPSSGEPPPSEG-NH2 [Example 288]	616				59.1	3580				16.3	18	30.3	72.4	5.17	1.89	0.234	86.18 ± 0.67 %	
H-Y[Aib]QGTFTSD[4Pal]SQ[αMeL]LD[Orn]K([dE-γGlu-C18 diacid])AQ[αMe4Pal]EFI[dE][αMeY]LIAGGPSSGAPPPSGSEEE-NH2 [Example 1235]		1.4	0	0														
H-Y[Aib]QGT[αMePhe(2-F)]TSDYSKLLDKIAQK([AEEA-γGlu-C20 diacid])AFIEYLLEGGPSSGEPPPSEG-NH2 [Example 295]	232				61.1	605				16.4	44.1	31.4	88.4	2.15	0.831	0.126		51.58 ± 3.24
H-Y[Aib]QGT[αMePhe(2-F)]TSD[4Pal]SI[αMeL]LD[Orn]K([AEEA-γGlu-C18 diacid])AQ[αMe4Pal][Orn]FIE[αMeY]LIEGGPSSGEPPPEGT-NH2 [Example 505]	39	91.6	78.9	53.5	2.1	92	0.445	0.205	0.00707									
H-Y[Aib]QGT[αMePhe(2-F)]TSD[4Pal][αMeS]I[αMeL]LD[Orn]K([AEEA-γGlu-C18 diacid])AQ[αMe4Pal]EFI[dE][αMeY]LIEGGPSSGAPPPSGTGE-NH2 [Example 714]	33.2	99.2	102	96.9	0.754	197	1.76	0.289	0.00764									
H-Y[Aib]QGT[αMePhe(2-F)]TSD[4Pal][αMeS]I[αMeL]LD[Orn]K([AEEA-γGlu-C18 diacid])AQ[αMe4Pal]EFI[dE][αMeY]LIEGGPSSGEPPPSGTGE-NH2 [Example 711]	35.2	95	91.6	91.9	0.786	197	1.29	0.355	0.00861									
H-Y[Aib]QGT[αMePhe(2-F)]TSD[4Pal][αMeS]I[αMeL]LD[Orn]K([AEEA-γGlu-C18 diacid])AQ[αMe4Pal]EFI[dE][αMeY]LVEGGPSSGEPPPSGS-NH2 [Example 733]	34.3	109	107	110	1.15	207	1.6	0.293	0.00894									

More lines, in order of falling EC50 (hGLP-1R [1]), values ahead:

EC50 (hGLP-1R [1]) [nM]	remaining at 0.25 h, 0.4 mg/mL [2] [%]	remaining at 0.5 h, 0.4 mg/mL [2] [%]	remaining at 1 h, 0.4 mg/mL [2] [%]	EC50 (hGIPR [3]) [nM]	EC50 (human GcgR) [nM]	EC50 (hGcgR) [nM]	EC50 (hGLP-1R [4]) [nM]	EC50 (hGIPR [5]) [nM]	EC50 (hGLP-1R [6]) [nM]	% Stimulation Max (hGLP-1R [6]) [%]	EC50 (human GLP1-R) [nM]	Internalization % TOP (human GLP1-R) [%]	EC50 (hGcgR; [8]) [nM]	EC50 (hGLP-1R [4]; [8]) [nM]	EC50 (hGIPR [5]; [8]) [nM]	Compound	Body weight (%) ([7]; 10 nmol/kg SC Q3D, 14 days)	Body weight (%) ([7]; 10 nmol/kg SC QD, 16 days)
869				62.3	1580				23.2	15.8	49.1	67.8	3.2	1.66	0.192	H-Y[Aib]QGTFTSDFSK[αMeL]LDKK([AEEA-γGlu-C20 diacid])AQ[Aib]AFIEYLLAGGPSSGEPPPSEE-NH2 [Example 4]	83.00 +/− 0.88**** %	
171				21.8	517				14	55.2	19.2	87.2	1.72	0.536	0.0806	H-Y[Aib]QGT[αMePhe(2-F)]TSDYSILLDKIAAK([AEEA-γGlu-C20 diacid])AFIEYLIEGGPSSGEPPPSEG-NH2 [Example 296]		49.64 ± 1.97
50.3	10.6	1	0	3.9	494	4.04	0.623	0.0375								H-Y[Aib]QGT[αMePhe(2-F)]TSD[4Pal]SI[αMeL]LD[Orn]K([AEEA-γGlu-C18 diacid])AQ[αMe4Pal][Orn]FI[dE]YLIEGGPSSGEPPPEGT-NH2 [Example 500]		
33.3	100	113	103	0.857	203	1.25	0.266	0.00688								H-Y[Aib]QGT[αMePhe(2-F)]TSD[4Pal][αMeS]I[αMeL]LD[Orn]K([AEEA-γGlu-C18 diacid])AQ[αMe4Pal]EFI[dE][αMeY]LIEGGPSSGEPPPSGGGE-NH2 [Example 742]		
